Common to all, as to assay: NCI tumour cell line growth inhibition, 48 h
The subject of assay [1] is NCI-H460.
In assay [2] the test system is BT-549.
Assay [3] deals with RPMI-8226.
Assay [4] deals with UO-31.
Assay [5] has as its system MDA-MB-231.
Assay [6] concerns HCC 2998.
The subject of assay [7] is A549.
For assay [8], the system named is HOP-62.
The subject of assay [9] is LOX IMVI.
The test system of assay [10] is PC-3.
The subject of assay [11] is UACC-257.
The test system of assay [12] is NCI-H226.
Assay [13] has as its system HCT-116.
The subject of assay [14] is OVCAR-5.
Assay [15] concerns CAKI-1.
Assay [16] concerns OVCAR-4.
In assay [17] the test system is SNB-19.
Assay [18] relates to SK-MEL-5.
In assay [19] the test system is SK-MEL-2.
Assay [20] has as its system MDA-MB-435.

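A five-concentration, 48-hour dose response in 96-well plates underlies each endpoint, interpolated linearly between surrounding concentrations. The concentration for 50% growth inhibition is given as GI50.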 Active and inactive are the calls of the source. Rule as the data show it: active = GI50 up to about 1.1 µM and inactive = higher.

Turning to `CCOC(=O)c1cc(-c2ccn(C(C)=O)c2)c(-c2cc(C)co2)[nH]1`, the GI50 in assay [1], in assay [2], in assay [3], in [4], in assay [5] and in assay [6] was > 100 µM (inactive) throughout. The GI50 in assay [7], in assay [8], in [9], in assay [10], in [11] and in assay [12] was > 100 µM (inactive) throughout. For the same compound, the GI50 in assay [13], in assay [14], in [15], in [16], in [17] and in [18] was > 100 µM (inactive) in each case. The GI50 in [19] and in assay [20] was > 100 µM (inactive) each time.
`COc1cccc(/C=N/[N+](C)(C)C)c1O`: the GI50 in assay [1], in [2], in [3], in assay [4], in assay [5] and in [6] was > 10 µM (inactive) throughout. In addition, the GI50 in assay [7], in [8], in assay [9], in [10], in [11] and in [12] was > 10 µM (inactive) throughout. The GI50 in [13], in assay [14], in assay [15], in [16], in [17] and in [18] was > 10 µM (inactive) each time. Besides, the GI50 in assay [19] and in assay [20] was > 10 µM (inactive) each time.
For `COc1cc(N(C)C)ccc1C=c1c2ccccc2n2c1cc(-c1ccccc1)[n+]2C`, the GI50 in [1] was 0.294 µM (active); in assay [2], 0.34 µM (active); in [3] it was 0.151 µM (active); in assay [4], 0.493 µM (active); in [5] it was 0.332 µM (active); in assay [6], 0.48 µM (active). The GI50 was 0.197 µM (active) in assay [7]; 0.275 µM (active) in [8]; 0.308 µM (active) in assay [9]; 0.233 µM (active) in assay [10]; 0.319 µM (active) in [11]; 0.518 µM (active) in assay [12]. Moreover, the GI50 is 0.175 µM (active) in [13]; 0.566 µM (active) in assay [14]; 0.472 µM (active) in [15]; 0.453 µM (active) in assay [16]; 0.372 µM (active) in assay [17]; 0.637 µM (active) in assay [18]. Also, the GI50 in assay [19] is 0.469 µM (active); in assay [20], 0.358 µM (active).
On to `N=C(N)Nc1ccc(-c2ccc(NC(=N)N)cc2)cc1`, for which the GI50 is 17.1 µM (inactive) in [1]; 45.8 µM (inactive) in [2]; 19.5 µM (inactive) in assay [3]; 46.1 µM (inactive) in assay [4]; > 100 µM (inactive) in [5]; 63 µM (inactive) in assay [6]. Further, the GI50 in assay [7] was 6.03 µM (inactive); in [8], 16.7 µM (inactive); in assay [9], 50.8 µM (inactive); in assay [10] it was 15.7 µM (inactive); in assay [11], > 73.5 µM (inactive); in [12] it was 15.7 µM (inactive). For the same compound, the GI50 in assay [13] was 28.8 µM (inactive); in [14], 11.9 µM (inactive); in [15], 41.1 µM (inactive); in assay [16] it was 60.7 µM (inactive); in [17], 41.4 µM (inactive); in assay [18] it was 16.3 µM (inactive). The GI50 in assay [19] is 34.4 µM (inactive); in assay [20], 55 µM (inactive).
Turning to `O=c1cc(N2CCCC2)[nH]c(=O)n1Cc1ccccc1`, the GI50 in [1] was > 100 µM (inactive); in [2], > 100 µM (inactive); in [3] it was > 100 µM (inactive); in assay [5], > 100 µM (inactive); in [6] it was 8.55 µM (inactive); in assay [7] it was > 100 µM (inactive). Further, the GI50 in assay [8] was > 100 µM (inactive); in assay [9] it was > 100 µM (inactive); in assay [10], > 100 µM (inactive); in assay [11], > 100 µM (inactive); in [12], 55.3 µM (inactive); in assay [13], > 100 µM (inactive). The GI50 in [14], in [15], in [16], in assay [17], in assay [18] and in [19] was > 100 µM (inactive) each time. In addition, the GI50 in assay [20] was > 100 µM (inactive).
Turning to `CCN(CC)C(=S)N/N=C/c1ccccn1`, the GI50 was 0.0143 µM (active) in assay [1]; 0.37 µM (active) in [2]; < 0.01 µM (active) in assay [3]; 0.0415 µM (active) in assay [4]; < 0.01 µM (active) in [5]; 0.149 µM (active) in assay [6]. In addition, the GI50 in [7] is 0.0239 µM (active); in assay [8] it was < 0.01 µM (active); in assay [9], < 0.01 µM (active); in assay [10], < 0.01 µM (active); in assay [11], < 0.01 µM (active); in assay [12], < 0.0138 µM (active). Further, the GI50 in assay [13] is < 0.01 µM (active); in [14] it was 0.2 µM (active); in assay [15] it was < 0.01 µM (active); in assay [17], < 0.0118 µM (active); in assay [18] it was < 0.0174 µM (active); in [19] it was 0.625 µM (active). Further, the GI50 in assay [20] is 0.12 µM (active).
Consider `O=C(NNS(=O)(=O)c1ccccc1)c1csc(NC(=S)NC2CCCCC2)n1`, for which the GI50 in assay [2] is 25.4 µM (inactive); in assay [3], 44.2 µM (inactive); in assay [4], 23.9 µM (inactive); in assay [5] it was 22.8 µM (inactive); in [6], 29 µM (inactive); in assay [7], 35.2 µM (inactive). The GI50 in assay [8] is 58.3 µM (inactive); in assay [9], 17.1 µM (inactive); in assay [10] it was 34.2 µM (inactive); in [11], 22.8 µM (inactive); in assay [12] it was 67.5 µM (inactive); in assay [13], 18.1 µM (inactive). In addition, the GI50 in assay [14] is 52.1 µM (inactive); in assay [15], 28.4 µM (inactive); in assay [16], 34.6 µM (inactive); in assay [18] it was 14.4 µM (inactive); in [19], 22.3 µM (inactive); in [20], 20.6 µM (inactive).
With `CC(=O)n1c2ccc(Br)cc2c2nc3ccccc3nc21`, the GI50 in [1], in assay [2], in assay [3], in assay [4], in [5] and in assay [6] was > 100 µM (inactive) in each case. For the same compound, the GI50 in assay [8] is 95.1 µM (inactive); in [9], > 100 µM (inactive); in [10] it was > 100 µM (inactive); in assay [11] it was > 100 µM (inactive); in assay [12], > 100 µM (inactive); in [13] it was > 100 µM (inactive). Moreover, the GI50 was > 100 µM (inactive) in assay [14]; > 100 µM (inactive) in [15]; 75.3 µM (inactive) in assay [16]; > 100 µM (inactive) in assay [17]; > 100 µM (inactive) in assay [18]; > 100 µM (inactive) in [19]. The GI50 in [20] is > 100 µM (inactive).

For the origin of these results see ChEMBL document CHEMBL1201862, “PubChem BioAssay data set” (2004).
